Each structure is given as a SMILES string. Read-outs that look alike come from different tables or passages of the source.

As usually defined, the IC50 is the concentration needed to halve the response being measured. The GI50 is the concentration at which growth is held to half of that of the control.

One test addresses T1, SF3b complexes (Homo sapiens, UniProt O75533+Q7RTV0).
T1 construct: endogenous in cells; host or cells: Nuclear extracts; A HeLa S3 extract preparation is described for the in vitro splicing assay
Briefly: Scintillation proximity assay (SPA) with [3H]-labelled pladienolide probe. The format is binding. To be noted: SF3B1 (WT); geometric mean; read-out: SPA-ATS GMean IC50 (nM) SF3B1 (WT). The procedure, abridged: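 SF3b complexes captured from nuclear extracts on anti-SF3B1 antibody SPA beads; test compounds pre-incubated 30 min before 2.5 nM [3H]-pladienolide probe added, then 30 min incubation. Bound probe read by scintillation; values from non-linear regression of concentration–response curves.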

For test [1], the system named is Ad2 variant pre-mRNAs spliced in HeLa S3 nuclear extracts. Briefly: In vitro splicing assay (IVS), RT-qPCR of spliced product. It is filed as biochemical. As to conditions: geometric mean. The gist of the method:
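Read-out is one-step TaqMan RT-qPCR of spliced Ad2 mRNA with Ftz as reference, normalized to DMSO and fit by non-linear regression. Reactions held HeLa S3 nuclear extract, 2 ng Ad2-derived pre-mRNA and test compound, with 15 min preincubation. Splicing was started with ATP-containing activation buffer and run 90 min at 30 °C.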
On the technique in general: In qPCR the cycle at which signal appears reflects the starting amount.

In test [2] the test system is NCI-H1568 cells (high MCL1). In words: Cell proliferation and viability, CellTiter-Glo, 72 hours. The format is cell-based. To be noted: for GI50: geometric mean; for CTGlo-ATS Mean MinResponse % 72 h NCIH1568.1: −100% cidal, 0% static, 100% maximal growth. The gist of the method: (§1)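 ATP luminescence (CellTiter-Glo) was measured 72 h after treatment with compound at 10 μM–100 pM (11 points, half-log) in 0.1% DMSO. The Panc line was grown in RPMI-1640 plus insulin and 15% FBS, the other in 10% FBS. Data were normalised to time zero and vehicle controls, where −100% is cidal and 0% static.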
For orientation: Cellular ATP, detected with luciferase, serves as a proxy for viable cell number.

Test [3] has as its system Panc 05.04 cells (SF3b K700E mutant). The test is described as above. The format is cell-based. As to conditions: for CTGlo-ATS Mean MinResponse % 72 h PANC0504.1: −100% cidal, 0% static, 100% maximal growth; for GI50: geometric mean. The gist of the method:
as §1

[4] abbreviates: Ad2.1 pre-mRNA substrate, read-out: qPCR-IVS-ATS GMean IC50 (nM) Ad2.1.
[5] abbreviates: Ad2.2 pre-mRNA substrate, read-out: qPCR-IVS-ATS GMean IC50 (nM) Ad2.2.
[6] abbreviates: NCI-H1568, read-out: CTGlo-ATS GMean GI50 (nM) 72 h NCIH1568.1, NCIH1568.1 cells, 72 h.
The mark [7] stands for this setting: Panc 05.04, read-out: CTGlo-ATS GMean GI50 (nM) 72 h PANC0504.1, PANC0504.1 cells, 72 h.
Setting [8] is: NCI-H1568, 72 h, read-out: CTGlo-ATS GMean GI50 (nM) 72 h NCIH1568.1, NCIH1568.1 cells, 72 h.
Where [9] appears, read: Panc 05.04, 72 h, read-out: CTGlo-ATS GMean GI50 (nM) 72 h PANC0504.1, PANC0504.1 cells, 72 h.

Take `C/C(=C\c1cc(F)cc(N2CC3CCC(C2)O3)c1)[C@H]1OC(=O)C[C@H](O)CC[C@H](C)[C@@H](OC(=O)N2CCN(C)CC2)/C=C/[C@@H]1C` [Compound 32]: the IC50 at SF3b complexes came out at 3.24 nM; in test [1] (setting [4]), 19.5 nM; in test [1] (setting [5]), 16.2 nM. The GI50 in test [2] (setting [6]) is 10 nM; in test [3] (setting [7]), 6.53 nM. Also, in test [2] (NCIH1568.1 cells, 72 h), the “CTGlo-ATS Mean MinResponse % 72 h NCIH1568.1” value is listed as −74.701%. In test [3] (PANC0504.1 cells, 72 h), the “CTGlo-ATS Mean MinResponse % 72 h PANC0504.1” value is given as −69.289%.

Consider `C/C(=C\c1cc(F)cc(N2CCC3(COC3)C2)c1)[C@H]1OC(=O)C[C@H](O)CC[C@H](C)[C@@H](OC(=O)N2CCN(C)CC2)/C=C/[C@@H]1C` [Compound 33], for which the IC50 on SF3b complexes was determined as 5.58 nM; in test [1] (setting [4]), 28.4 nM; in test [1] (setting [5]), 27.6 nM. Moreover, the 50% growth inhibitory concentration (GI50) in test [2] (setting [6]) is 12 nM; in test [3] (setting [7]) it was 10 nM. The “CTGlo-ATS Mean MinResponse % 72 h NCIH1568.1” value in test [2] (NCIH1568.1 cells, 72 h) is given as −73.122%. In addition, the “CTGlo-ATS Mean MinResponse % 72 h PANC0504.1” value in test [3] (PANC0504.1 cells, 72 h) is reported as −77.334%.

Regarding `C/C(=C\c1cc(F)cc(N2CC[C@@H](O)C2)c1)[C@H]1OC(=O)C[C@H](O)CC[C@H](C)[C@@H](OC(=O)N2CCN(C)CC2)/C=C/[C@@H]1C` [Compound 34], the figures for the concentration for half-maximal inhibition (IC50) (at SF3b complexes; in test [1] (setting [4]); in test [1] (setting [5])) were 3.18 nM, 56.5 nM and 26.9 nM, respectively. The GI50 in test [2] (setting [8]) was 9.46 nM; in test [3] (setting [9]), 14 nM. Also, the “CTGlo-ATS Mean MinResponse % 72 h NCIH1568.1” value in test [2] (NCIH1568.1 cells, 72 h) was −55.438%. Further, the “CTGlo-ATS Mean MinResponse % 72 h PANC0504.1” value in test [3] (PANC0504.1 cells, 72 h) is listed as −85.656%.

As for `C/C(=C\c1cc(F)cc(N2CCC(=O)C2)c1)[C@H]1OC(=O)C[C@H](O)CC[C@H](C)[C@@H](OC(=O)N2CCN(C)CC2)/C=C/[C@@H]1C` [Compound 35], the figures for the IC50 (at SF3b complexes; in test [1] (setting [4]); in test [1] (setting [5])) were 4.78 nM, 913 nM and 27.1 nM, respectively. The GI50 is 107 nM in test [2] (setting [6]) and 53.2 nM in test [3] (setting [7]). Moreover, in test [2] (NCIH1568.1 cells, 72 h), the “CTGlo-ATS Mean MinResponse % 72 h NCIH1568.1” value was −46.227%. The “CTGlo-ATS Mean MinResponse % 72 h PANC0504.1” value in test [3] (PANC0504.1 cells, 72 h) is −87.702%.

Take `C/C(=C\c1cc(F)cc(N2CCOCC2)c1)C1OC(=O)C[C@H](O)CC[C@H](C)[C@@H](OC(=O)N2CCN(C3CCOCC3)CC2)/C=C/[C@@H]1C` (stereo partly drawn) [Compound 36]: the IC50 came to 3.49 nM on SF3b complexes, 236 nM in test [1] (setting [4]) and 32.9 nM in test [1] (setting [5]). Moreover, the GI50 in test [2] (setting [8]) turned out to be 25.4 nM; in test [3] (setting [9]), 19 nM. In addition, the “CTGlo-ATS Mean MinResponse % 72 h NCIH1568.1” value in test [2] (NCIH1568.1 cells, 72 h) is on record as −54.389%. The “CTGlo-ATS Mean MinResponse % 72 h PANC0504.1” value in test [3] (PANC0504.1 cells, 72 h) is listed as −84.494%.

On to `C/C(=C\c1cc(F)cc(N2CCOCC2)c1)[C@H]1OC(=O)C[C@H](O)CC[C@H](C)[C@@H](OC(=O)N(C)C2CCCN(C)C2)/C=C/[C@@H]1C` (stereo partly drawn) [Compound 37], for which the IC50 at SF3b complexes came to 2.27 nM; in test [1] (setting [4]), 85.8 nM; in test [1] (setting [5]) it was 20.2 nM. Also, the GI50 in test [2] (setting [6]) was 4.75 nM; in test [3] (setting [7]), 4.61 nM. Further, the “CTGlo-ATS Mean MinResponse % 72 h NCIH1568.1” value in test [2] (NCIH1568.1 cells, 72 h) is on record as −82.247%. Further, the “CTGlo-ATS Mean MinResponse % 72 h PANC0504.1” value in test [3] (PANC0504.1 cells, 72 h) is given as −86.134%.

Take `C/C(=C\c1cc(F)cc(N2CC(F)C2)c1)[C@H]1OC(=O)C[C@H](O)CC[C@H](C)[C@@H](OC(=O)N2CCN(C)CC2)/C=C/[C@@H]1C` [Compound 38]: the concentration for half-maximal inhibition (IC50) on SF3b complexes amounted to 3.1 nM; in test [1] (setting [4]), 1020 nM; in test [1] (setting [5]), 25.2 nM. Further, the GI50 was found to be 19.6 nM in test [2] (setting [6]) and 14.4 nM in test [3] (setting [7]). Also, the “CTGlo-ATS Mean MinResponse % 72 h NCIH1568.1” value in test [2] (NCIH1568.1 cells, 72 h) is −54.093%. Further, the “CTGlo-ATS Mean MinResponse % 72 h PANC0504.1” value in test [3] (PANC0504.1 cells, 72 h) is −88.672%.

Turning to `CN[C@H]1CCN(c2cc(F)cc(/C=C(\C)[C@H]3OC(=O)C[C@H](O)CC[C@H](C)[C@@H](OC(=O)N4CCN(C)CC4)/C=C/[C@@H]3C)c2)C1` [Compound 39], the IC50 at SF3b complexes is 26 nM; in test [1] (setting [4]) it was 63.1 nM; in test [1] (setting [5]) it was 32 nM. In addition, the figures for the concentration for 50% growth inhibition (GI50) in test [2] (setting [6]) and in test [3] (setting [7]) were 45.6 nM and 50.1 nM, respectively. The “CTGlo-ATS Mean MinResponse % 72 h NCIH1568.1” value in test [2] (NCIH1568.1 cells, 72 h) is given as −97.412%. Besides, the “CTGlo-ATS Mean MinResponse % 72 h PANC0504.1” value in test [3] (PANC0504.1 cells, 72 h) is given as −89.747%.

On to `C/C(=C\c1cc(F)cc(N2CCOCC2)c1)[C@H]1OC(=O)C[C@H](O)CC[C@H](C)[C@@H](OC(=O)N2CCCC(N(C)C)C2)/C=C/[C@@H]1C` (stereo partly drawn) [Compound 40], for which the half-inhibitory concentration (IC50) is 3.98 nM at SF3b complexes, 55.9 nM in test [1] (setting [4]) and 28.1 nM in test [1] (setting [5]). The GI50 worked out at 13.3 nM in test [2] (setting [6]) and 7.75 nM in test [3] (setting [7]). Also, the “CTGlo-ATS Mean MinResponse % 72 h NCIH1568.1” value in test [2] (NCIH1568.1 cells, 72 h) was −72.259%. In addition, in test [3] (PANC0504.1 cells, 72 h), the “CTGlo-ATS Mean MinResponse % 72 h PANC0504.1” value is on record as −82.881%.

The record behind these values is patent US11679107B2 (Eisai R&D Management Co., Ltd., priority 2018, dated 2023).
